Assay results published in publication doi:10.1101/2025.10.29.685286v1 (biorxiv, 2025).

Biological target: T1, NmGNAT (Nakamurella multipartita, UniProt C8XEF8)
T1 sequence (C8XEF8 1-164): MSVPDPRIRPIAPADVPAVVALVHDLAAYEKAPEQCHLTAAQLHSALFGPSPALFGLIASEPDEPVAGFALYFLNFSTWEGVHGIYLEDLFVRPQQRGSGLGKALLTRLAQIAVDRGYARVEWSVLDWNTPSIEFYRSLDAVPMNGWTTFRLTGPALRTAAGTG
Test: microscale thermophoresis
Type: binding

Q: With NCCCC[C@H](N)C(=O)O [lysine] as the molecule, how does the Kd read?
A: Its Kd is 137 ± 4.2 µM.

Q: Which Kd does the source give for CC(=O)SCCNC(=O)CCNC(=O)[C@H](O)C(C)(C)COP(=O)(O)OP(=O)(O)OC[C@H]1O[C@@H](n2cnc3c(N)ncnc32)[C@H](O)[C@@H]1OP(=O)(O)O [acetyl-CoA] here?
A: Its Kd is 18.9 ± 3.2 µM.
